In patent US20200299783A1 (Board of Regents, The University of Texas System, priority 2019, published 2020):

Columns and labels:
[1] = tested on: ibrutinib-resistant MCL cell lines (Z-138 and Maver-1); assay: Cell growth assay, ibrutinib-resistant MCL cell lines; type: cell-based, human
Experimental: Cells were seeded in triplicate in a 96-well plate with 2×10^5 cells per well and treated with indicated dose of single agent or two compound combination for 24-72 hours. In the last 30 min, 50 μL of CellTiter 96 Aqueous One Solution Reagent were added to the culture wells and incubated at 37° C. in 5% CO2. Light absorbance of formazan was measured at 495 nm on a universal microplate reader equipped with KC4 software (Biotek Instruments, Winooski, Vt., USA).

ETC complex I = ETC complex I activity in ibrutinib-resistant MCL cell lines; type: cell-based, human; settings: Z-138 and Maver-1; 20 nM, 24 hours; FIGS. 11A & 11B
[2] = tested on: ibrutinib-resistant MCL cell lines, Z-138 and Maver-1; assay: Mitochondria respiration (OCR, Seahorse), ibrutinib-resistant MCL cell lines; type: cell-based, human; settings: 20 nM for 1 h, FIG. 5B
Experimental: The oxygen consumption rate (OCR) was measured using a Seahorse XF-96 Metabolic Flux Analyzer (Seahorse Bioscience, North Billerica, Mass., USA). Briefly, MCL cells were treated with/without IACS-010759 (20 nM) for 1 h. On the day of analysis, 2-4×10^5 MCL cells/well were adhered to XF 96-well cell culture microplates (Seahorse Biosciences) pre-coated with Cell-Talc (BD Biosciences), by centrifugation at 1,000×g, without brakes for 5 min, then changed to mitochondria stress medium supplemented with 25 mM glucose, 2 mM sodium pyruvate, and 2 mM glutamine (pH 7.4), followed by incubation at 37° C. in a non-CO2 incubator for 1 h. […], FCCP (2 μM), and Rotenone/Antimycin A (0.5 μM), were loaded into drug delivery ports and injected sequentially at the indicated time points. After each injection, 4 time points were recorded with approximately 35 min between each injection. […] over time was normalized to protein content measured by sulforhodamine B (SRB) staining and plotted using Graph-Pad Prism.

[3] = tested on: ibrutinib-resistant (Maver-1 and Z-138) MCL cell lines; assay: Intracellular ATP, ibrutinib-resistant MCL cell lines; type: cell-based, human; settings: 20 nM for 24 hours; 0 nM vs 20 nM p<0.0001; FIG. 11C
Experimental: (§1) MCL cell lines were seeded at 1-2×10^6 cells/well in triplicate in six-well plates and incubated overnight. Next, the media were replaced with 3 mL complete RPMI-1640 medium with or without inhibitors. […] and analyzed for their glucose, glutamine and lactate content using the Glucose, Glutamine and Lactate Colorimetric Assay Kits (BioVision), respectively, according to the manufacturer's instructions. Glucose or glutamine consumption was extrapolated by subtracting the measured glucose concentrations in the media from the initial concentrations (11.1 mM glucose; 2 mM glutamine). Intracellular ATP contents from above treated cells was determined using ATP Colorimetric Assay Kit (Biovision) as outlined in the manufacturer's protocol. […]

[4] = tested on: ibrutinib-resistant MCL cell lines (Maver-1 and Z-138) versus ibrutinib-sensitive (JeKo-1 and Mino); assay: Glutamine uptake in MCL cell lines; type: cell-based, human; settings: 20 nM for 24 hours; resistant compared with sensitive cells; FIG. 11D
Experimental: as §1

[5] = tested on: ibrutinib-resistant MCL cell lines Maver-1 and Z-138; assay: ROS levels by flow cytometry, ibrutinib-resistant MCL cell lines; type: cell-based, human; settings: Maver-1 and Z-138; IACS-010759 25 nM (text; FIG. 5E legend 20 nM) and/or 5 μM BPTES, 24 hours
Experimental: Mitochondria membrane potential, mitochondria mass, ROS, and apoptosis analysis. MCL cells were seeded and cultured overnight before treatment to reach log phase. Respective cell lines were plated at 2×10^6 cells/well in 6-well plates in phenol-red and pyruvate-free DMEM assay medium containing 5 mM glucose (Sigma), 2 mM GlutaMAX (Gibco, ThermoFisher Scientific), and 5% dialyzed FCS (Gibco). Vehicle, IACS-0107059 (20 nM), or (1-5 μM) BPTES was added and replenished every day until the indicated time points. ROS and mitochondria membrane potential were evaluated 24 hours after treatment. […] TMRE dye fluorescence retained in the cells was detected by flow cytometry with excitation and emission of 548/574 nm. Data were analyzed with NovoExpress (ACEA Biosciences, San Diego, Calif., USA) or FlowJo10 (Tree Star, Ashland, Oreg., USA). To measure ROS levels, treated cells were harvested, stained with […] CM-H2DCF-DA (C6827, Molecular Probes, Invitrogen) in PBS for 30 min at 37° C., washed twice with PBS, and analyzed in a flow cytometer (FACS Caliber, BD Biosciences) by recording the green fluorescence of oxidized DCF. The mean fluorescence of 10,000 analyzed cells (corrected for auto fluorescence) was taken as a readout for the intracellular ROS load.

[6] = tested on: ibrutinib-resistant Maver-1 MCL cells; assay: Apoptosis assay (Annexin-V/PI), Maver-1; type: cell-based, human; settings: 72 hours, 20 nM IACS-010759 and/or 5 μM BPTES, FIGS. 5F & 11E
Experimental: Apoptosis assays. Annexin V-binding assay was used to detect the induction of apoptosis. Cells were seeded in 48-well plates with single agent or combination therapy for various times, or with different concentrations for 48 hours. To quantify the percentages of cells undergoing apoptosis, Annexin V-FITC was used. Briefly, cells were washed twice with cold PBS and then suspended in binding buffer at a concentration of 1×10^6 cells/mL. After incubation, 100 μL of the solution was transferred to a 5-mL tube, to which 5 μL of Annexin V-FITC and 5 μL of PI are added. The tube was gently vortexed and incubated for 15 min at room temperature in dark. At the end of the incubation, 300 μL of binding buffer was added. Flow cytometric analysis was performed immediately with a Novocyte Flow Cytometer (ACEA Biosciences, San Diego, Calif., USA). Data were analyzed with NovoExpress (ACEA Biosciences, San Diego, Calif., USA) or FlowJo10 (Tree Star, Ashland, Oreg., USA).

[7] = tested on: ibrutinib-resistant MCL PDX
Experimental: Histopathological analysis. Excised tissues from patients and PDX mice were fixed in 10% formalin solution, processed by standard methods, embedded in paraffin, sectioned at 5 μm, and stained with H&E. For immunohistochemical (IHC) evaluation, the tissues are stained with an antibody against human anti-CD20 (Dako, Glostrup, Denmark), counterstained with Harris hematoxylin and examined by standard light microscopy. Samples were analyzed using an Olympus BX51TF microscope equipped with UPlan FL 40×/0.75 and 20×/0.50 objective lenses (Olympus, Melville, N.Y., USA).

For `Cc1nc(-c2nc(-c3ccc(OC(F)(F)F)cc3)no2)nn1Cc1cccc(N2CCC(S(C)(=O)=O)CC2)c1` [IACS-010759], the “inhibition of proliferation (cell growth inhibition)” value ([1]; Z-138 and Maver-1, 72-hour incubation, FIG. 5A) was “dose-dependent manner at nanomolar concentrations”, the “difference in IC50 values between the resistant and sensitive cell lines” value ([1]; cell growth, 72 h, resistant (Z-138, Maver-1) vs sensitive (Mino, JeKo-1)) was “approximately 10 fold” and the “ETC complex I activity” value (ETC complex I) was “reduced”. The “OCR (oxygen consumption rate)” value ([2]; vs DMSO-treated control) was “reduced the OCR”, the “average reduction of OCR compared with the control” value ([2]; mixed effects regression model, p<0.0001) was 358.9406 (95% CI: 321.1402-396.741) and the “ATP production (intracellular ATP levels)” value [3] was “decreased”. For the same molecule, the glutamine uptake inhibition [4] was “greater glutamine uptake inhibition”, the ROS production [5] was “induced ROS production” and the apoptosis [6] was 23%. The toxicities ([7]; 10 mg/kg oral gavage 5 consecutive days/week) was “No apparent toxicities”, the “body weight vs vehicle control” value ([7]; 10 mg/kg oral gavage 5 consecutive days/week, p=0.3304, FIG. 6C) was “not significantly different” and the “tumor growth by tumor volume” value ([7]; 10 mg/kg oral gavage 5 consecutive days/week, vs vehicle, n=5, p<0.0001, FIG. 6A) was “completely prevented tumor growth”. For the same molecule, the “tumor growth by human β2M levels” value ([7]; 10 mg/kg oral gavage 5 consecutive days/week, vs vehicle, n=5, p<0.0001, FIG. 6B) was “completely prevented tumor growth” and the “H&E and anti-CD20 staining of dissected tissue post-treatment” value ([7]; end of treatment, a small number of CD20+ cells remained, FIG. 6D) was “repopulation of the tumor area with fatty deposits”.
